Assay results reported in patent US8211662B2, “Nitroreductase enzymatic substrates” (Biomerieux, priority 2007, dated 2012).

Legend:
[1] = tested on: Candida glabrata NCPF 3943; experiment: Nitroreductase detection on Columbia agar, colonies read under UV; assay type: cell-based; design: key to Intensity of fluorescence, Candida glabrata NCPF3943 / F: fluorescence (intensity), Candida glabrata NCPF 3943 / Intensity of the fluorescence, Candida glabrata NCPF 3943: − = no fluorescence detected; +/− = weak fluorescence; + = medium fluorescence; ++ = strong fluorescence; conditions: 100 mg/l in Columbia agar, 24 h 37° C., UV 360-365 nm
Method: (§1) A mass of 40 mg of each substrate was dissolved in 4 ml of dimethylformamide (DMF). This solution was entirely taken up in 400 ml of Columbia agar autoclaved beforehand and kept molten at 50° C. The final concentration for each substrate was 100 mg/l.
(§2) Each of the media was distributed into Petri dishes 90 mm in diameter, in a proportion of 20 ml per dish.
(§3) 18 microorganism strains derived from collections and belonging to various species of bacteria and of yeasts were inoculated onto these media by semi-quantitative isolation of 10 μl of a suspension at 0.5 McFarland diluted to 1/20. The media were incubated for 24 hours at 37° C., then the colonies formed were examined visually under UV illumination at 360-365 nm.

[2] = tested on: Salmonella typhimurium NCTC 74; experiment: as above; assay type: cell-based; design: key to Intensity of fluorescence, Salmonella typhimurium NCTC 74 / F: fluorescence (intensity), Salmonella typhimurium NCTC 74 / Intensity of the fluorescence, Salmonella typhimurium NCTC 74: − = no fluorescence detected; +/− = weak fluorescence; + = medium fluorescence; ++ = strong fluorescence; conditions: for Salmonella typhimurium result with the substrate: table 2
Method: as §1, §2, §3

[3] = tested on: Enterobacter cloacae NCTC 11936; experiment: as above; assay type: cell-based; design: key: − = no fluorescence detected; +/− = weak fluorescence; + = medium fluorescence; ++ = strong fluorescence; conditions: 100 mg/l in Columbia agar, 24 h 37° C., UV 360-365 nm
Method: as §1, §2, §3

[4] = tested on: Providencia rettgeri NCTC 7475; experiment: as above; assay type: cell-based; design: key: − = no fluorescence detected; +/− = weak fluorescence; + = medium fluorescence; ++ = strong fluorescence; conditions: Table 4; 100 mg/l in Columbia agar, 24 h 37° C., UV 360-365 nm
Method: as §1, §2, §3

[5] = tested on: Citrobacter freundii 46262 (wild); experiment: as above; assay type: cell-based; design: key: − = no fluorescence detected; +/− = weak fluorescence; + = medium fluorescence; ++ = strong fluorescence; conditions: Table 4; 100 mg/l in Columbia agar, 24 h 37° C., UV 360-365 nm
Method: as §1, §2, §3

[6] = tested on: Streptococcus pyogenes NCTC 8306; experiment: as above; assay type: cell-based; design: key: − = no fluorescence detected; +/− = weak fluorescence; + = medium fluorescence; ++ = strong fluorescence; conditions: 100 mg/l in Columbia agar, 24 h 37° C., UV 360-365 nm
Method: as §1, §2, §3

[7] = tested on: Enterococcus faecium NCTC 7171; experiment: as above; assay type: cell-based; design: key: − = no fluorescence detected; +/− = weak fluorescence; + = medium fluorescence; ++ = strong fluorescence; conditions: Table 4; 100 mg/l in Columbia agar, 24 h 37° C., UV 360-365 nm
Method: as §1, §2, §3

[8] = tested on: Staphylococcus epidermidis NCTC 11047; experiment: as above; assay type: cell-based; design: key: − = no fluorescence detected; +/− = weak fluorescence; + = medium fluorescence; ++ = strong fluorescence; conditions: 100 mg/l in Columbia agar, 24 h 37° C., UV 360-365 nm
Method: as §1, §2, §3

[9] = tested on: Escherichia coli NCTC 10418; experiment: as above; assay type: cell-based; design: key: − = no fluorescence detected; +/− = weak fluorescence; + = medium fluorescence; ++ = strong fluorescence; conditions: 100 mg/l in Columbia agar, 24 h 37° C., UV 360-365 nm
Method: as §1, §2, §3

[10] = tested on: Candida albicans ATCC 90028; experiment: as above; assay type: cell-based; design: key: − = no fluorescence detected; +/− = weak fluorescence; + = medium fluorescence; ++ = strong fluorescence; conditions: 100 mg/l in Columbia agar, 24 h 37° C., UV 360-365 nm
Method: as §1, §2, §3

[11] = tested on: Staphylococcus aureus NCTC 6571; experiment: as above; assay type: cell-based; design: key: − = no fluorescence detected; +/− = weak fluorescence; + = medium fluorescence; ++ = strong fluorescence; conditions: 100 mg/l in Columbia agar, 24 h 37° C., UV 360-365 nm
Method: as §1, §2, §3

[12] = tested on: Serratia marcescens NCTC 10211; experiment: as above; assay type: cell-based; design: key: − = no fluorescence detected; +/− = weak fluorescence; + = medium fluorescence; ++ = strong fluorescence; conditions: 100 mg/l in Columbia agar, 24 h 37° C., UV 360-365 nm
Method: as §1, §2, §3

[13] = tested on: Bacillus subtilis NCTC 9372; experiment: as above; assay type: cell-based; design: key: − = no fluorescence detected; +/− = weak fluorescence; + = medium fluorescence; ++ = strong fluorescence; conditions: 100 mg/l in Columbia agar, 24 h 37° C., UV 360-365 nm
Method: as §1, §2, §3

[14] = tested on: Pseudomonas aeruginosa NCTC 10662; experiment: as above; assay type: cell-based; design: key: − = no fluorescence detected; +/− = weak fluorescence; + = medium fluorescence; ++ = strong fluorescence; conditions: 100 mg/l in Columbia agar, 24 h 37° C., UV 360-365 nm
Method: as §1, §2, §3

[15] = tested on: Listeria monocytogenes NCTC 11994; experiment: as above; assay type: cell-based; design: key: − = no fluorescence detected; +/− = weak fluorescence; + = medium fluorescence; ++ = strong fluorescence; conditions: 100 mg/l in Columbia agar, 24 h 37° C., UV 360-365 nm
Method: as §1, §2, §3

[16] = tested on: Yersinia enterocolitica NCTC 11176; experiment: as above; assay type: cell-based; design: key: − = no fluorescence detected; +/− = weak fluorescence; + = medium fluorescence; ++ = strong fluorescence; conditions: 100 mg/l in Columbia agar, 24 h 37° C., UV 360-365 nm
Method: as §1, §2, §3

[17] = tested on: Enterococcus faecalis NCTC 775; experiment: as above; assay type: cell-based; design: key: − = no fluorescence detected; +/− = weak fluorescence; + = medium fluorescence; ++ = strong fluorescence; conditions: 100 mg/l in Columbia agar, 24 h 37° C., UV 360-365 nm
Method: as §1, §2, §3

[18] = tested on: Acinetobacter baumanii ATCC 19606; experiment: as above; assay type: cell-based; design: key to Intensity of fluorescence, Acinetobacter baumanii ATCC 19606 / Intensity of the fluorescence, Acinetobacter baumanii ATCC 19606: − = no fluorescence detected; +/− = weak fluorescence; + = medium fluorescence; ++ = strong fluorescence
Method: as §1, §2, §3

[19] = tested on: Morganella morganii 462403 (wild); experiment: as above; assay type: cell-based; design: key to Intensity of fluorescence, Morganella morganii 462403 / F: fluorescence (intensity), Morganella morganii 462403 (wild) / Intensity of the fluorescence, Morganella morganii 462403 (wild): − = no fluorescence detected; +/− = weak fluorescence; + = medium fluorescence; ++ = strong fluorescence; conditions: 100 mg/l in Columbia agar, 24 h 37° C., UV 360-365 nm
Method: as §1, §2, §3

MRSA NCTC 11939 = experiment: as above; assay type: cell-based, Staphylococcus aureus; design: key: − = no fluorescence detected; +/− = weak fluorescence; + = medium fluorescence; ++ = strong fluorescence; conditions: 100 mg/l in Columbia agar, 24 h 37° C., UV 360-365 nm
Method: as §1, §2, §3

[20] = tested on: S. aureus (including MRSA) 10 strains; experiment: Detection of various strains of S. aureus in the presence of substrates; assay type: cell-based, Staphylococcus aureus; conditions: for No. of strains detected, S. aureus (including MRSA): 10 strains
Staph spp 12 strains = experiment: as above; assay type: cell-based
S. epidermidis 2 strains = experiment: as above; assay type: cell-based
Method: as §1, §2
18 microorganism strains derived from collections and belonging to various species of bacteria and of yeasts were inoculated onto these media by semi-quantitative isolation of 10 μl of a suspension at 0.5 McFarland diluted to 1/20. […]

Enterococcus 6 strains = experiment: as above; assay type: cell-based
[21] = Table 4, 100 mg/l in Columbia agar, 24 h 37° C., UV 360-365 nm
[22] = 100 mg/l in Columbia agar, 24 h 37° C., UV 360-365 nm

SMILES | Distinguishing or identifying Staphylococcus aureus strains, in particular MRSA, from most of the other Gram-positive bacterial strains [20] | No. of strains detected, S. aureus (including MRSA) ([20]; 24 h) | No. of strains detected, S. aureus (including MRSA) ([20]; 48 h) | Intensity of fluorescence, Candida glabrata NCPF3943 [1] | No. of strains detected, Staph spp (Staph spp 12 strains; 24 h) | No. of strains detected, Staph spp (Staph spp 12 strains; 48 h) | Intensity of fluorescence, Salmonella typhimurium NCTC 74 [2, 22] | Salmonella typhimurium result with the substrate [2] | No. of strains detected, S. epidermidis (S. epidermidis 2 strains; 24 h) | No. of strains detected, S. epidermidis (S. epidermidis 2 strains; 48 h) | Intensity of fluorescence, Enterobacter cloacae NCTC 11936 [3] | Intensity of fluorescence, Streptococcus pyogenes NCTC 8306 [6] | Intensity of fluorescence, Staphylococcus epidermidis NCTC 11047 [8] | Intensity of fluorescence, Escherichia coli NCTC 10418 [9] | Intensity of fluorescence, Candida albicans ATCC 90028 [10] | Intensity of fluorescence, Staphylococcus aureus NCTC 6571 [11] | Intensity of fluorescence, Serratia marcescens NCTC 10211 [12] | Intensity of fluorescence, Bacillus subtilis NCTC 9372 [13] | Intensity of fluorescence, Pseudomonas aeruginosa NCTC 10662 [14] | Intensity of fluorescence, Listeria monocytogenes NCTC 11994 [15] | further results
CN1CCN(c2ccc([N+](=O)[O-])c(-c3nc4ccccc4s3)c2)CC1 [Substrate 23] |  |  |  |  |  |  |  |  |  |  |  |  |  |  |  |  |  |  |  |  | Intensity of the fluorescence, Candida glabrata NCPF 3943 ([1]; Table 4): −; Intensity of the fluorescence, Salmonella typhimurium NCTC 74 [2, 21]: +; Intensity of the fluorescence, Enterobacter cloacae NCTC 11936 ([3]; Table 4): +; Intensity of the fluorescence, Providencia rettgeri NCTC 7475 [4]: +; Intensity of the fluorescence, Citrobacter freundii 46262 (wild) [5]: +; Intensity of the fluorescence, Streptococcus pyogenes NCTC 8306 ([6]; Table 4): −; Intensity of the fluorescence, Enterococcus faecium NCTC 7171 [7]: −; Intensity of the fluorescence, Staphylococcus epidermidis NCTC 11047 ([8]; Table 4): −; Intensity of the fluorescence, Escherichia coli NCTC 10418 ([9]; Table 4): −; Intensity of the fluorescence, Candida albicans ATCC 90028 ([10]; Table 4): −; Intensity of the fluorescence, Staphylococcus aureus NCTC 6571 ([11]; Table 4): V.; Intensity of the fluorescence, Serratia marcescens NCTC 10211 ([12]; Table 4): +; Intensity of the fluorescence, Bacillus subtilis NCTC 9372 ([13]; Table 4): −; Intensity of the fluorescence, Pseudomonas aeruginosa NCTC 10662 ([14]; Table 4): +; Intensity of the fluorescence, Listeria monocytogenes NCTC 11994 ([15]; Table 4): −; Intensity of the fluorescence, Yersinia enterocolitica NCTC 11176 ([16]; Table 4): −; Intensity of the fluorescence, Enterococcus faecails NCTC 775 ([17]; Table 4): −; Intensity of the fluorescence, Acinetobacter baumanii ATCC 19606 [18, 21]: −; Intensity of the fluorescence, Morganella morganii 462403 (wild) ([19]; Table 4): +; Intensity of the fluorescence, MRSA NCTC 11939 (MRSA NCTC 11939; Table 4): +/−
COc1cc(-c2nc3ccccc3o2)c([N+](=O)[O-])cc1OC [Substrate 6] | make it possible to distinguish or identify the Staphylococcus aureus strains | 10 | 10 | − | 12 | 12 | − | negative | 0 | 2 | + | − | − | + | − | + | + | − | − | − | Intensity of fluorescence, Yersinia enterocolitica NCTC 11176 [16]: −; Intensity of fluorescence, Enterococcus faecalis NCTC 775 [17]: −; No. of strains detected, Enterococcus (Enterococcus 6 strains; 24 h): 0; No. of strains detected, Enterococcus (Enterococcus 6 strains; 48 h): 1; Intensity of fluorescence, Acinetobacter baumanii ATCC 19606 [18, 22]: −; Intensity of fluorescence, Morganella morganii 462403 [19]: +/−; Intensity of fluorescence, Staphylococcus aureus NCTC 11939 (MRSA NCTC 11939): +
O=[N+]([O-])c1ccccc1-c1nc2cc(Cl)ccc2o1 [Substrate 2] | make it possible to distinguish or identify the Staphylococcus aureus strains | 10 | 10 | − | 12 | 12 | − | negative | 0 | 2 | + | − | − | +^1 | − | + | + | − | − | − | Intensity of fluorescence, Yersinia enterocolitica NCTC 11176 [16]: +/−; Intensity of fluorescence, Enterococcus faecalis NCTC 775 [17]: −; No. of strains detected, Enterococcus (Enterococcus 6 strains; 24 h): 0; No. of strains detected, Enterococcus (Enterococcus 6 strains; 48 h): 1; Intensity of fluorescence, Acinetobacter baumanii ATCC 19606 [18, 22]: +/−; Distinguishing Pseudomonas aeruginosa from Acinetobacter baumanii ([18]; table 2): make it possible to distinguish Pseudomonas aeruginosa from Acinetobacter baumanii; Intensity of fluorescence, Morganella morganii 462403 [19]: +/−; Intensity of fluorescence, Staphylococcus aureus NCTC 11939 (MRSA NCTC 11939): +
